From patent publication US8618094B2, “Fused substituted aminopyrrolidine derivative” (Daiichi Sankyo Company, Limited, priority 2007, dated 2013) come the findings set out here.

Converted amounts (≈) assume the structure as drawn. Where two headings read alike, the source gives them in different places.

What all share (test): Antibacterial activity (MIC), standard method of the Japanese Society of Chemotherapy
What all share (type): cell-based

Assay [1] has as its system K. pneumoniae TYPE 1. Particulars: Klebsiella pneumoniae, TYPE1. The method, then:
(§1) Antibacterial activity of the compounds of the present invention was measured in accordance with the standard method specified by the Japanese Society of Chemotherapy.

Assay [2] concerns E. coli NIHJ. Particulars: Escherichia coli. The method, then: as §1
Assay [3] relates to S. aureus FDA 209-P. The settings on record: Staphylococcus aureus, FDA209. Here is the method:
as §1

The subject of assay [4] is P. aeruginosa PAO1. The settings on record: Pseudomonas aeruginosa. The method, then:
as §1

The test system of assay [5] is E. cloacae 03400. The settings on record: Enterobacter cloacae. Here is the method: as §1
The subject of assay [6] is S. epidermidis 56500. Particulars: Staphylococcus epidermidis. Here is the method:
as §1

Assay [7] deals with E. faecalis 19433. Particulars: Enterococcus faecalis. Here is the method:
as §1

Assay [8] deals with S. aureus 870307. Particulars: Staphylococcus aureus. The method, then: as §1
Assay [9] concerns S. marcescens 10100. The settings on record: Serratia marcescens. The method, then:
as §1

For assay [10], the system named is S. pyogenes JCM5674(ATCC12344). Particulars: Streptococcus pyogenes. Here is the method: as §1
For assay [11], the system named is H. influenzae ATCC49247. The settings on record: Haemophilus influenzae. Here is the method:
as §1

Assay [12] has as its system P. mirabilis 08103. The settings on record: Proteus mirabilis. Here is the method: as §1
Assay [13] relates to S. pneumoniae 104835. The settings on record: Streptococcus pneumoniae. Here is the method: as §1
For assay [14], the system named is M(B). Caterrhalis ATCC25238. Here is the method: as §1
Assay [15] deals with S. pneumoniae J24. Particulars: Streptococcus pneumoniae. Here is the method: as §1
The mark [16] stands for this setting: ATCC 25238 / ATCC 49247, H. influenzae ATCC25238 as printed (second half of Table 2), read-out: MIC, H. influenzae ATCC25238.
The mark [17] stands for this setting: M(B). Caterrhalis [sic] ATCC49247 (Table 2), read-out: MIC, M(B). Caterrhalis ATCC49247.

In the case of `COc1c(N2C[C@@H]3COCC[C@@]3(N)C2)c(F)cc2c(=O)c(C(=O)O)cn([C@@H]3C[C@@H]3F)c12` [Example 37, 7-[(1S,6S)-1-Amino-4-oxa-8-azabicyclo[4.3.0]nonan-8-yl]-6-fluoro-1-[(1R,2S)-2-fluorocyclopropyl]-1,4-dihydro-8-methoxy-4-oxoquinoline-3-carboxylic acid], the MIC in [1] worked out at 0.1 µg/mL (≈ 0.23 µM); in assay [2] it was 0.006 µg/mL (≈ 0.0138 µM); in [3], 0.006 µg/mL (≈ 0.0138 µM); in assay [4], 1.56 µg/mL (≈ 3.58 µM); in [5], 0.025 µg/mL (≈ 0.0574 µM); in assay [6] it was 0.012 µg/mL (≈ 0.0276 µM). Besides, the MIC in assay [7] is 0.1 µg/mL (≈ 0.23 µM); in assay [8], 0.05 µg/mL (≈ 0.115 µM); in assay [9], 0.2 µg/mL (≈ 0.459 µM); in [10], 0.05 µg/mL (≈ 0.115 µM); in assay [11] (setting [16]) it was no more than 0.003 µg/mL; in assay [12] it was 0.05 µg/mL (≈ 0.115 µM). The MIC in assay [13] turned out to be 0.39 µg/mL (≈ 0.896 µM); in assay [14] (setting [17]) it was 0.025 µg/mL (≈ 0.0574 µM); in assay [15], 0.05 µg/mL (≈ 0.115 µM).
Turning to `COc1c(N2CC3=CCCC3(N)C2)c(F)cc2c(=O)c(C(=O)O)cn([C@@H]3C[C@@H]3F)c12` (single isomer, unassigned) [Example 25], the MIC in assay [1] was found to be 0.05 µg/mL (≈ 0.12 µM); in assay [2] it was 0.012 µg/mL (≈ 0.0287 µM); in assay [3], 0.025 µg/mL (≈ 0.0599 µM); in assay [4], 0.39 µg/mL (≈ 0.934 µM); in assay [5], 0.012 µg/mL (≈ 0.0287 µM); in assay [6], 0.1 µg/mL (≈ 0.24 µM). Moreover, the MIC came to 0.2 µg/mL (≈ 0.479 µM) in [7]; 0.39 µg/mL (≈ 0.934 µM) in assay [8]; 0.1 µg/mL (≈ 0.24 µM) in assay [9]; 0.05 µg/mL (≈ 0.12 µM) in [10]; 0.006 µg/mL (≈ 0.0144 µM) in [11] (H. influenzae ATCC49247 (first half of Table 2), read-out: MIC, H. influenzae ATCC49247); 0.025 µg/mL (≈ 0.0599 µM) in [12]. For the same compound, the MIC in assay [13] is 0.39 µg/mL (≈ 0.934 µM); in assay [14] (M(B). Caterrhalis ATCC25238 (first half of Table 2), read-out: MIC, M(B). Caterrhalis ATCC25238), 0.025 µg/mL (≈ 0.0599 µM); in assay [15], 0.05 µg/mL (≈ 0.12 µM).
Regarding `C[C@H]1COc2c(N3C[C@@H]4CCCC[C@@]4(N)C3)c(F)cc3c(=O)c(C(=O)O)cn1c23` [Example 34, 10-[(1S,6S)-1-Amino-8-azabicyclo[4.3.0]nonan-8-yl]-9-fluoro-2,3-dihydro-3-(S)-methyl-7-oxo-7H-pyrido[1,2,3-de][1,4]benzoxazine-6-carboxylic acid], the MIC stood at 0.025 µg/mL (≈ 0.0623 µM) in assay [1]; 0.006 µg/mL (≈ 0.0149 µM) in assay [2]; 0.025 µg/mL (≈ 0.0623 µM) in [3]; 0.2 µg/mL (≈ 0.498 µM) in assay [4]; 0.006 µg/mL (≈ 0.0149 µM) in assay [5]; 0.05 µg/mL (≈ 0.125 µM) in assay [6]. The MIC in assay [7] was 0.1 µg/mL (≈ 0.249 µM); in [8] it was 0.39 µg/mL (≈ 0.972 µM); in assay [9], 0.05 µg/mL (≈ 0.125 µM); in assay [10] it was 0.05 µg/mL (≈ 0.125 µM); in [11] (setting [16]), 0.006 µg/mL (≈ 0.0149 µM); in assay [12] it was 0.012 µg/mL (≈ 0.0299 µM). Besides, the MIC in assay [13] was determined as 0.39 µg/mL (≈ 0.972 µM); in assay [14] (setting [17]), 0.012 µg/mL (≈ 0.0299 µM); in [15] it was 0.1 µg/mL (≈ 0.249 µM).
On to `C[C@H]1COc2c(N3CCN(C)CC3)c(F)cc3c(=O)c(C(=O)O)cn1c23` [LVFX, levofloxacin, reference compound], for which the MIC in assay [1] came to 0.05 µg/mL (≈ 0.138 µM); in assay [2] it was 0.012 µg/mL (≈ 0.0332 µM); in [3], 0.1 µg/mL (≈ 0.277 µM); in assay [4], 0.39 µg/mL (≈ 1.08 µM); in assay [5], 0.012 µg/mL (≈ 0.0332 µM); in assay [6], 0.39 µg/mL (≈ 1.08 µM). Also, the MIC is 0.78 µg/mL (≈ 2.16 µM) in assay [7]; 6.25 µg/mL (≈ 17.3 µM) in [8]; 0.05 µg/mL (≈ 0.138 µM) in assay [9]; 0.39 µg/mL (≈ 1.08 µM) in [10]; 0.012 µg/mL (≈ 0.0332 µM) in [11] (setting [16]); 0.025 µg/mL (≈ 0.0692 µM) in [12]. The MIC in assay [13] was greater than 6.25 µg/mL; in assay [14] (setting [17]), 0.025 µg/mL (≈ 0.0692 µM); in assay [15] it was 0.78 µg/mL (≈ 2.16 µM).
